From paper PMC8143339, “PK/PD Modeling of the PDE7 Inhibitor—GRMS-55 in a Mouse Model of Autoimmune Hepatitis” (Pharmaceutics, 2021)
Values after ≈ are worked out from the molar mass of the structure shown. Read-outs that look alike come from different tables or passages of the source.

Test system: ConA-induced hepatitis
Test: Pharmacodynamic study and PK/PD/disease progression modeling in ConA-induced hepatitis
Format: in vivo, female BALB/c mice
Conditions: for IC50: Mus musculus, serum concentration, PK/PD model, IP 50 or 100 mg/kg, ConA 20 mg/kg IV
Experimental: ConA was dissolved in sterile saline (2 mg·mL^−1). The studied compounds (GRMS-55, rolipram, and BRL-50481) were dissolved in a mixture of DMSO, PEG 400, and water for injection at a ratio of 25:25:50 (v/v/v). Mice were given an IP injection of the investigated compounds or the corresponding volume of vehicle alone and, thirty minutes later, intravenously (IV) administered with ConA solution. An additional control group received vehicle alone IP instead of the studied compounds followed by IV injection of sterile saline. ConA was given at a dose of 20 mg·kg^−1. Mice were exsanguinated at several time points post-ConA injection. Blood samples were allowed to clot for 0.5 h at room temperature and then centrifuged at 3000× g for 10 min to obtain the serum, which was stored at −20 °C until further analysis.
The influence of PDE inhibitors on the levels of inflammatory mediators and transaminases in ConA-treated mice was investigated in two separate experiments. In the preliminary study, the animals were pretreated IP with GRMS-55 at a dose of 50 mg·kg^−1, the PDE4-selective inhibitor rolipram at a dose of 10 mg·kg^−1, or the PDE7-selective inhibitor BRL-50481 at a dose of 50 mg·kg^−1. Doses of the investigated compounds were chosen based on the results of previous studies. Subsequently, mice were given an IV injection of ConA and sacrificed at 8 h following mitogen dosing. The levels of TNF-α, IL-6, and IFN-γ and the activities of ALT and AST in the mouse serum were measured. This preliminary experiment allowed comparing the activity of the studied PDE inhibitors in this AIH model and helped to select the doses of GRMS-55 for a subsequent pharmacodynamic study. In the final pharmacodynamic experiment, GRMS-55 was administered at two dose levels (50 and 100 mg·kg^−1) followed by ConA administration at a dose of 20 mg·kg^−1. Animals were sacrificed at various time points post-ConA dosing (1, 2, 4, 8 and 24 h). The levels of TNF-α, IL-1β, IL-4, IL-6, IL-10, IL-12, IL-17A, and IFN-γ were measured using a multiplex Luminex assay. In addition, the activities of ALT and AST in the mouse serum were assessed. The concentration–time profiles of the selected biomarkers obtained in this experiment combined with the results of pharmacokinetic analysis allowed the development of a semi-mechanistic PK/PD/disease progression model and the investigation of concentration–effect relationships of GRMS-55.
The serum samples from the preliminary pharmacological study were analyzed using ELISA tests according to the protocols provided by the manufacturers. The TNF-α concentrations were measured using the Mouse TNF-α Quantikine ELISA Kit (R&D Systems, Minneapolis, MN, USA), while the concentrations of IL-6 and IFN-gamma were quantified by ELISA kits manufactured by Cloud-Clone Corp. (Houston, TX, USA). The absorbance of samples was measured on a POLARstar Omega multi-mode microplate reader (BMG LABTECH, Ortenberg, Germany) set at 450 nm wavelength. TNF-α, IL-1β, IL-6, IL-4, IL-10, IL-12, IL-17A, and IFN-γ serum levels in samples from pharmacodynamic experiment were determined by a premixed Magnetic Luminex Assay (R&D Systems, Inc., Minneapolis, MN, USA) according to the manufacturer’s protocol. Serum AST and ALT activities were quantified on a chemistry analyzer BS-800 (Shenzhen Mindray Bio-medical Electronics Co., Ltd., Shenzhen, China).
A PK/PD/disease progression model illustrated in Figure 1 was developed considering the mechanism of action of the investigated compound and the mechanisms of progression of ConA-induced hepatitis, i.e., the subsequent stages leading to the production and release of relevant biomarkers.
Moreover, possible interrelationships and interactions among the measured biomarkers were considered during the model building process. […]

IC50 (read-out: IC50_IFN-γ, concentration resulting in 50% of Imax of IFN-γ): 12.3 µg/mL (≈ 24.4 µM) | IC50 (read-out: IC50_IL-6, concentration resulting in 50% of Imax of IL-6): 13.4 µg/mL (≈ 26.6 µM) | IC50 (read-out: IC50_TNF-α, concentration resulting in 50% of Imax of TNF-α): 7.97 µg/mL (≈ 15.8 µM)
SMILES: Cn1c(=O)c2c(nc(NCCc3ccccc3)n2CCCC(=O)NN=Cc2ccccc2O)n(C)c1=O [GRMS-55, 4-(1,3-dimethyl-2,6-dioxo-8-(phenethylamino)-1,2,3,6-tetrahydro-7H-purin-7-yl)-N′-(2-hydroxybenzylidene)butanehydrazide]
effect on serum IL-4 level (1, 2 and 8 h post-ConA, both dose groups): decreased | effect on ALT and AST activities (50 or 100 mg/kg IP): significant and prominent decrease | effect on serum IL-12 level (4 h post-ConA, 50 and 100 mg/kg IP): significantly decreased | effect on serum IL-1β level (8 h post-ConA, 50 and 100 mg/kg IP): significantly decreased | effect on serum IL-17A concentration (8 h post-ConA, both dose levels): decreased
